{"source": "paper PMC7573825", "about": "(Frontiers in Pharmacology, 2020)", "key": {"most sensitive bacteria": {"tested_on": "most sensitive bacteria", "design": "method as in Bhongsatiern et al., 2015; Bruniera et al., 2015", "details": "ref Bhongsatiern et al., 2015, Bruniera et al.; cited from earlier work"}, "[1]": {"design": "method as in 3 sources, one per row (each row's own in cited_ref): ref Adane et al., 2015; Lin et al., 2016 ||| ref Ji et al., 2018 ||| ref Lin et al., 2019", "details": "ref Adane et al., 2015, Lin et al., 2016, cited from earlier work"}, "[2]": {"assay": "Population pharmacokinetic modeling (NONMEM, one-compartment) of intravenous vancomycin from TDM trough plasma concentrations in kidney transplant recipients", "details": "for Typical value of V / Typical value of CL: intravenous vancomycin, 56 adult kidney transplant recipients", "description": "All these patients adopted routine therapeutic drug monitoring. The transplant surgeries were performed between March 8 and June 21 in 2017. […] The glomerular filtration rate (GFR) was estimated from the sCr according to the published formula [GFR (ml min^-1): GFR = 2.104*sCr(μM) - 1.154*age - 1.154*(0.742 for female)*1.233(correction for Chinese)]\nOther concomitantly used drugs, such as prednisone, mycophenolate mofetil, cyclosporine, and tacrolimus were administered orally or intravenously once or twice a day, and their usages and doses were based on clinical necessity and safety.\nThe venous blood was centrifuged at 1,000 g for 4 min and a volume of 100 ml supernatant plasma was mixed with 100 ml of 5% perchloric acid solution. The mixture was fully vortex blended and then centrifuged at 14,000 g for 5 min. […] AHC-C18 column (250 mm × 4.6 mm, 5 μm; ShimadzuCo., Japan), a precolumn (10 mm × 4 mm, 5 μm; ShimadzuCo.), and a PDA detector (ShimadzuCo.) were used in the workstation. The mobile phase was acetonitrile in 0.01 M KH2PO4 solution (7:93 in volume), the flow rate was 0.5 ml min^-1, the column temperature was 30°C, and the detection wavelength was 236 nm. […] After using the same parallel method for sample preparation as mentioned above, the standard samples were simultaneously injected with the samples for testing.\nData processing and pharmacokinetic analysis were carried out with the nonlinear mixed-effects model program (NONMEM®, Version 7.4; Icon Inc, PA, USA), compiled with GFortran (Version 4.9.2; http://www.gfortran.org). The output was explored by the R package (Version 3.3.1; http://www.r-project.org) and Xpose (Version 4.5.3; http://xpose.sourceforge.net). The first-order conditional estimation method with η-ε interaction (FOCE-I) was used throughout the model-building procedure.\nFirst, we established the base compartment model. For the statistical modeling, exponential model was used as the inter-individual variation model:\nFor the residual variation modeling, additive, proportional, and mixed models were applied. The additive and proportional mixed model is as follows:\nIn the forward model building step, the covariates were assessed for their suitability depending on the changes in the objective function values (OFV) and the inter-individual variations and residual variations. Taking an example with df = 1, when the decrease of OFV is more than 3.84 (P < 0.05, df = 1), the introduced factor can be considered as a significant covariate for the parameter model. During the backward analysis, a covariate was removed from the model every time, except when the OFV value increased by more than 6.63 units (P < 0.01, df = 1).\nFor the effects of continuous variables on pharmacokinetic parameters, linear, exponential, and power function models were used. The linear function model was:"}}, "note": "Read-outs that look alike come from different tables or passages of the source.", "data": [{"smiles": "CN[C@H](CC(C)C)C(=O)N[C@H]1C(=O)N[C@@H](CC(N)=O)C(=O)N[C@H]2C(=O)N[C@H]3C(=O)N[C@H](C(=O)N[C@H](C(=O)O)c4cc(O)cc(O)c4-c4cc3ccc4O)[C@H](O)c3ccc(c(Cl)c3)Oc3cc2cc(c3O[C@@H]2O[C@H](CO)[C@@H](O)[C@H](O)[C@H]2O[C@H]2C[C@](C)(N)[C@H](O)[C@H](C)O2)Oc2ccc(cc2Cl)[C@H]1O", "note": "[vancomycin]", "values": [{"measurement": "minimum inhibitory concentration (MIC)", "setting": "most sensitive bacteria", "result": "0.1 to 2", "unit": "µg/mL"}, {"measurement": "Vancomycin clearance", "setting": "[1]; adult Chinese patients with post-craniotomy meningitis, typical creatinine clearance rate 104.7 ml/min", "result": 7.56, "unit": "L/h"}, {"measurement": "Vancomycin clearance", "setting": "[1]; patients with augmented renal clearance", "result": 8.52, "unit": "L/h"}, {"measurement": "Typical value of V", "setting": "[2]; base model, one-compartment, 195 plasma Cmin", "result": 45.5, "unit": "L"}, {"measurement": "Typical value of CL", "setting": "[2]; base model, one-compartment, 195 plasma Cmin, HPLC, FOCE-I", "result": 1.84, "unit": "L/h"}, {"measurement": "Typical value of CL", "setting": "[2]; final model, CL=2.08×[(WT/59.95)^1.07]×[(GFR/36.67)^0.698], 195 plasma Cmin", "result": 2.08, "unit": "L/h"}, {"measurement": "Typical value of V", "setting": "[2]; final model, V=63.2×[(WT/59.95)^0.934]", "result": 63.2, "unit": "L"}, {"measurement": "Influential factor for WT on V (θ3)", "setting": "[2]; final model, power function exponent", "result": 0.934}]}]}
